# Reference: US11896594B2, “Palatable antiparasitic formulations” (Zoetis Services LLC, priority 2018, dated 2024)
# Legend:
# [1] = Moxidectin degradation in compressed tablets on accelerated stability (40° C./75% RH); format: physicochemical; conditions: for moxidectin degradation in the final tablets: 3 months 40°/75% RH; for moxidectin degradation: 40° C./75% RH; for moxidectin degradation in the finished product: 6 months accelerated stability
# From the text: For the moxidectin granulation, four different polymers were screened. Initially, the moxidectin-polymer ratio was about 1:160 (about 21.82 w/w % polymer of intra granular portion). The polymers included hypromellose [hydroxypropylmethyl cellulose (HPMC), Poloxamer 188 (P188), ethyl cellulose, and hydroxypropyl methyl cellulose acetyl succinate MG (HPMC AS MG). […] Use of the polymers in the moxidectin granulation process provided stability to the moxidectin. […] HPMC concentration was then assessed to determine the effect on moxidectin stability in compressed tablets. Concentrations of moxidectin:HPMC were 1:20, 1:80, 1:120, and 1:160 in the moxidectin granulation. These amounts accounted for about 2.72 w/w %, 10.91 w/w %, 16.36 w/w %, and 21.82 w/w % of the moxidectin granulation, respectively. […] Therefore, the 1:80 ratio of moxidectin to HPMC was used to prepare the moxidectin granulations. The amount of HPMC in the moxidectin granulation is about 6 to 18 w/w %; the preferred amount is about 10 to 12 w/w %; and the most preferred amount is about 11 w/w %. In the final composition, the amount of HPMC is about 2.0 w/w % to about 4.0 w/w % of the total tablet weight; and more preferably, about 2.0 to 3 w/w % of the total tablet weight; and even more preferably, about 2.0 to 2.5 w/w % of the total tablet weight. To further control moxidectin degradation, the stability enhancer, meglumine, and the antioxidant, BHT, were added to the moxidectin granulation. […] Use of the higher concentration (2.72 w/w %) of meglumine was used initially to better control the acid catalyzed degradants. However, at 6 months, there was a greater increase in base catalyzed degradation of moxidectin at this concentration of meglumine. […] Similarly, moxidectin degradation was assessed using varying amounts of BHT in the moxidectin granulation.
# D. immitis = test: Prevention of heartworm disease in dogs; format: in vivo; conditions: sensitive isolates; single dose; dogs
smiles,measurement,setting,value
CO/N=C1\C[C@]2(C[C@@H]3C[C@@H](C/C=C(\C)C[C@@H](C)/C=C/C=C4\CO[C@@H]5[C@H](O)C(C)=C[C@@H](C(=O)O3)[C@]45O)O2)O[C@H](/C(C)=C/C(C)C)[C@H]1C [moxidectin],moxidectin degradation in the final tablets,[1]; BHT 0 w/w % in moxidectin granulation,about 2.7%
same,moxidectin degradation in the final tablets,[1]; BHT 0.095 w/w % in granulation (0.018 w/w % of tablet),about 1.4%
same,moxidectin degradation in the final tablets,[1]; BHT 0.19 w/w % in granulation (0.037 w/w % of tablet),about 2.3%
same,moxidectin degradation in the final tablets,[1]; BHT 0.38 w/w % in granulation (0.074 w/w % of tablet),about 2.2%
same,moxidectin degradation,"[1]; HPMC AS MG in moxidectin granulation (about 1:160), 3-months",12.1%
same,moxidectin degradation,"[1]; HPMC in moxidectin granulation (moxidectin-polymer about 1:160), 3-months",3.6%
same,moxidectin degradation,"[1]; P188 (Poloxamer 188) in moxidectin granulation (about 1:160), 3-months",5.2%
same,total moxidectin degradation,"[1]; compressed tablets manufactured with HPMC, 6-month accelerated stability",5-6%
same,moxidectin degradation,"[1]; ethyl cellulose in moxidectin granulation (about 1:160), 3-months",7.4%
same,moxidectin degradation in the final tablets,[1]; meglumine 0 w/w % in moxidectin granulation,about 2.4%
same,moxidectin degradation in the final tablets,[1]; meglumine 1.36 w/w % in granulation (0.27 w/w % of tablet),about 1.0%
same,moxidectin degradation in the final tablets,[1]; meglumine 2.72 w/w % in granulation (0.54 w/w % of tablet),about 0.7%
same,moxidectin degradation in the finished product,[1]; moxidectin:HPMC 1:20 (2.72 w/w % of granulation),5.04%
same,moxidectin degradation in the finished product,[1]; moxidectin:HPMC 1:80 (10.91 w/w % of granulation),2.41%
same,moxidectin degradation in the finished product,[1]; moxidectin:HPMC 1:120 (16.36 w/w % of granulation),2.26%
same,moxidectin degradation in the finished product,[1]; moxidectin:HPMC 1:160 (21.82 w/w % of granulation),1.75%
same,moxidectin degradation,"[1]; without the use of a polymer, compressed tablets, 2-months",16.7%
same,efficacy against sensitive D. immitis isolates,D. immitis,100%
